Our source for the IC50 values is US11814367B2, “Inhibitors of glycogen synthase 1 (GYS1) and methods of use thereof” (Maze Therapeutics, Inc., priority 2021, dated 2023).

The target in test [1] is hGYS2 enzyme (recombinant hGYS2/GN1 protein) (Homo sapiens (Human), UniProt P54840). In words: GYS2 coupled enzyme assay (PK/LDH). It counts as biochemical. The following applies: geometric mean of at least 2 assay runs on separate days, read-out: Avg_IC50. The method, boiled down:
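Continuous PK/LDH-coupled readout of NADH loss at 340 nm over 10 min, with 200 nM hGYS2/GN1 and 2 mM each of UDP-glucose, glucose-6-phosphate and PEP, in 50 mM Tris pH 7.5 with 0.2% glycogen and 2.5% DMSO. Slopes were normalized to controls and IC50s fit to a Hill curve from duplicates.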

Test [2] has as its target hGYS1 enzyme (recombinant hGYS1/GN1 protein) (Homo sapiens (Human), UniProt P13807). Briefly: GYS1 coupled enzyme assay (PK/LDH). It counts as biochemical. As to conditions: hGYS1/GN1 50 nM, UDP-Glucose 0.8 mM, G6P 1 mM; geometric mean of at least 2 runs.
Test [3] has as its system hGYS1 enzyme / glycogen synthesis in HeLa cells. In words: GYS1 cell based assay (glycogen synthesis, Glucose-glo). The following applies: 24 h incubation, 20 mM glucose, geometric mean of at least 2 runs. The arrangement: species or system human. A digest of the protocol: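 HeLa cells starved 24 h in medium containing only 1× Glutamax were plated onto compound in medium with 20 mM glucose (1% DMSO final) for 24 h, 37 °C, 5% CO2. Acid lysates were Tris-quenched, glucoamylase-digested (pH 5.3, 1 h, 37 °C) and read by Glucose-glo luminescence. IC50 came from Hill fits, as geometric mean of ≥2 runs.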

Sequence of hGYS2 enzyme (recombinant hGYS2/GN1 protein) (P54840 whole entry): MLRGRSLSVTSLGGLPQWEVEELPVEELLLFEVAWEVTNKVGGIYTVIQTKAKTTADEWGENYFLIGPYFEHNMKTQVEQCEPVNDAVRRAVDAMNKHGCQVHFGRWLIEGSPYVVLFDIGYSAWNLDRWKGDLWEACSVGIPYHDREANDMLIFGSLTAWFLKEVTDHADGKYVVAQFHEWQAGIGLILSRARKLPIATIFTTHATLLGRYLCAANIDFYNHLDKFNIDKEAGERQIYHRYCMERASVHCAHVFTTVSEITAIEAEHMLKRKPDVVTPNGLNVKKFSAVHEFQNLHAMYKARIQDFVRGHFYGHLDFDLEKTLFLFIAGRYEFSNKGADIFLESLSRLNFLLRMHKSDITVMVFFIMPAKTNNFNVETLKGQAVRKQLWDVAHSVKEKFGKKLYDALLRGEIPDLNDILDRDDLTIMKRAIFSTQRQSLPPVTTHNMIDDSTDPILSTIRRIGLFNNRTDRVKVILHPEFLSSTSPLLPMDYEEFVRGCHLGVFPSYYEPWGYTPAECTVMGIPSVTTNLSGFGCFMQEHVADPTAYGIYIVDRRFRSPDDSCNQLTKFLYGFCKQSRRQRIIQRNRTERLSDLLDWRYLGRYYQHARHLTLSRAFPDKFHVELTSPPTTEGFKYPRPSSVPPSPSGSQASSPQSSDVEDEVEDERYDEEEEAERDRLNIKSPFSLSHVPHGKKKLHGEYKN
Sequence of hGYS2 enzyme (recombinant hGYS2/GN1 protein) (P46976 whole entry partner): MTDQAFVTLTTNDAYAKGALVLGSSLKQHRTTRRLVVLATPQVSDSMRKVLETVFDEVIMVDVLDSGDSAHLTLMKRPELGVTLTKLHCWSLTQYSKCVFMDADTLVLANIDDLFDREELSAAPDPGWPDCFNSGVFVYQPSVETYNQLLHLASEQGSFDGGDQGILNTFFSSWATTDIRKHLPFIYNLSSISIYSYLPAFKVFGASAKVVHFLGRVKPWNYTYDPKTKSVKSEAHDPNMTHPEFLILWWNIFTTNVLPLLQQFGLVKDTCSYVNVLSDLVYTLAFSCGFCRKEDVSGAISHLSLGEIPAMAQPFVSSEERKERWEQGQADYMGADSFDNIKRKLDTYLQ
Sequence of hGYS1 enzyme (recombinant hGYS1/GN1 protein) (P13807 whole entry): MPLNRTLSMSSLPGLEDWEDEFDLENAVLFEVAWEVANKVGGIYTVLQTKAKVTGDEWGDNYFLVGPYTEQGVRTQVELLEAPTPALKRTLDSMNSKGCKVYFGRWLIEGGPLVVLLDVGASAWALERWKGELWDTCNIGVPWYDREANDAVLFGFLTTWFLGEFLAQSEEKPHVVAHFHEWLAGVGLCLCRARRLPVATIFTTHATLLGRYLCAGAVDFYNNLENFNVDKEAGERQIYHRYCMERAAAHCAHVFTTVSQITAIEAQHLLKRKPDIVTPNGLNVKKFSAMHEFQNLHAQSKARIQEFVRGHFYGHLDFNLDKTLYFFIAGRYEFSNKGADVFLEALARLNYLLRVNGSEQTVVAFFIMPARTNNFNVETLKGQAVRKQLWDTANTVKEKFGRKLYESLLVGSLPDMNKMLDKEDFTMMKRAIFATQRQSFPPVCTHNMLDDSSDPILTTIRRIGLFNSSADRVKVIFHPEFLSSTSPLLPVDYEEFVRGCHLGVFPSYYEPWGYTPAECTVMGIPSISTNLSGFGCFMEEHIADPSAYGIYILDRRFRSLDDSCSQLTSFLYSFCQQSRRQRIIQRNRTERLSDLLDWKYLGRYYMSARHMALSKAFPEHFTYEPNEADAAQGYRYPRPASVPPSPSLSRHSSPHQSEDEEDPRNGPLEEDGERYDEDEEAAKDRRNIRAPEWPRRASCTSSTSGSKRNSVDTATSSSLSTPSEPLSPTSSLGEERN
Sequence of hGYS1 enzyme (recombinant hGYS1/GN1 protein) (P46976 whole entry partner): as the sequence (P46976 whole entry partner) above

For `O=C(NC(c1ccccc1)c1ccc(C2CC2)cn1)[C@@H]1C[C@@H](F)CN1C(=O)Cc1cnn[nH]1` (single isomer, unassigned) [Compound 497, (2S,4R)-1-(2-(1H-1,2,3-triazol-5-yl)acetyl)-N—((S) or (R)-(5-cyclopropylpyridin-2-yl)(phenyl)methyl)-4-fluoropyrrolidine-2-carboxamide], the IC50 was > 100000 nM in test [1]; 369 nM in test [2]; > 5670 nM in test [3] (Homo sapiens, HeLa, 24 h).
Take `CC(C(=O)N1C[C@H](F)C[C@H]1C(=O)N[C@@H](c1ccccc1)c1ccc(C2(C)CC2)c(F)c1)n1cnc2ccccc21` (single isomer, unassigned) [Compound 567, (2S,4R)-1-[(2R) or (2S)-2-(1H-1,3-benzodiazol-1-yl)propanoyl]-4-fluoro-N-[(S)-[3-fluoro-4-(1-methylcyclopropyl)phenyl](phenyl)methyl]pyrrolidine-2-carboxamide]: the IC50 in test [1] is > 100000 nM; in test [2] it was 642 nM; in test [3], 11500 nM.
In the case of `CC(C(=O)N1C[C@H](F)C[C@H]1C(=O)N[C@@H](c1ccccc1)c1ccc(C2(C)CC2)c(F)c1)n1cnc2ccccc21` (single isomer, unassigned) [Compound 574, (2S,4R)-1-[(2S) or 2R)-2-(1H-1,3-benzodiazol-1-yl)propanoyl]-4-fluoro-N-[(S)-[3-fluoro-4-(1-methylcyclopropyl)phenyl](phenyl) methyl]pyrrolidine-2-carboxamide], the IC50 in test [1] is > 100000 nM; in test [2], 22 nM; in test [3] it was 200 nM.
The corresponding values for `CC(C(=O)N1C[C@H](F)C[C@H]1C(=O)N[C@@H](c1ccccc1)c1ccc(C2(C)CC2)c(F)n1)n1cnc2ccccc21` (single isomer, unassigned) [Compound 586, (2S,4R)-1-((S) or (R)-2-(1H-benzo[d]imidazol-1-yl)propanoyl)-4-fluoro-N—((S)-(6-fluoro-5-(1-methylcyclopropyl)pyridin-2-yl)(phenyl)methyl)pyrrolidine-2-carboxamide] are > 100000 nM, 10 nM and 150 nM.
Take `CC(C(=O)N1C[C@H](F)C[C@H]1C(=O)N[C@@H](c1ccccc1)c1ccc(C2(C)CC2)c(F)n1)n1cnc2ccccc21` (single isomer, unassigned) [Compound 587, (2S,4R)-1-((R) or (S)-2-(1H-benzo[d]imidazol-1-yl)propanoyl)-4-fluoro-N—((S)-(6-fluoro-5-(1-methylcyclopropyl)pyridin-2-yl)(phenyl)methyl)pyrrolidine-2-carboxamide]: the IC50 is > 100000 nM in test [1], 109 nM in test [2] and 2390 nM in test [3].
For `Cc1cc(C(NC(=O)[C@@H]2C[C@@H](F)CN2C(=O)Cc2cnn[nH]2)c2ccccc2)ncc1C(C)C` (single isomer, unassigned) [Compound 604, (2S,4R)-4-fluoro-N-[(S) or (R)-[4-methyl-5-(propan-2-yl)pyridin-2-yl](phenyl)methyl]-1-[2-(1H-1,2,3-triazol-5-yl)acetyl]pyrrolidine-2-carboxamide], the IC50 was > 100000 nM in test [1]; 176 nM in test [2]; 1590 nM in test [3] (Homo sapiens, HeLa, 24 h).
The corresponding values for `CC(C)c1cnc(C(NC(=O)[C@@H]2C[C@@H](F)CN2C(=O)Cc2cnn[nH]2)c2ccccc2)cc1F` (single isomer, unassigned) [Compound 605, (2S,4R)-4-fluoro-N-[(S) or (R)-[4-fluoro-5-(propan-2-yl)pyridin-2-yl] (phenyl)methyl]-1-[2-(1H-1,2,3-triazol-5-yl)acetyl]pyrrolidine-2-carboxamide] are > 100000 nM, 168 nM and 2130 nM.
For the molecule `Cc1nc(C(NC(=O)[C@@H]2C[C@@H](F)CN2C(=O)Cc2cnn[nH]2)c2ccccc2)ccc1C(C)C` (single isomer, unassigned) [Compound 607, (2S,4R)-4-fluoro-N-[(S) or (R)-[6-methyl-5-(propan-2-yl)pyridin-2-yl](phenyl)methyl]-1-[2-(1H-1,2,3-triazol-5-yl)acetyl]pyrrolidine-2-carboxamide], the IC50 is > 100000 nM in test [1]; 333 nM in test [2]; 3290 nM in test [3] (Homo sapiens, HeLa, 24 h).
The corresponding values for `Cc1nc(C(NC(=O)[C@@H]2C[C@@H](F)CN2C(=O)Cc2nnc(C(F)F)o2)c2ccccc2)ccc1C(C)C` (single isomer, unassigned) [Compound 609, (2S,4R)-1-{2-[5-(difluoromethyl)-1,3,4-oxadiazol-2-yl]acetyl}-4-fluoro-N-[(S) or (R)-[6-methyl-5-(propan-2-yl)pyridin-2-yl](phenyl)methyl] pyrrolidine-2-carboxamide] are > 100000 nM, 225 nM and 1650 nM.
Taken in the same sequence, the figures for `CC(C)(C)c1ccc(C(NC(=O)[C@@H]2C[C@@H](F)CN2C(=O)Cc2cnn[nH]2)c2ccccc2)nc1` (single isomer, unassigned) [Compound 611, (2S,4R)-N-[(S) or (R)-(5-tert-butylpyridin-2-yl)(phenyl)methyl]-4-fluoro-1-[2-(1H-1,2,3-triazol-5-yl)acetyl]pyrrolidine-2-carboxamide] were > 100000 nM, 547 nM and 5320 nM.
As to `CC(C)c1ccc([C@@H](NC(=O)[C@@H]2C[C@@H](F)CN2C(=O)Cc2nn(C)c(=O)n2C)c2ccccc2)nc1F` [Compound 779, (2S,4R)-1-[2-(1,4-dimethyl-5-oxo-4,5-dihydro-1H-1,2,4-triazol-3-yl)acetyl]-4-fluoro-N-[(S)-[6-fluoro-5-(propan-2-yl)pyridin-2-yl](phenyl)methyl] pyrrolidine-2-carboxamide], the IC50 in test [1] is > 100000 nM; in test [3] (Homo sapiens, HeLa, 24 h) it was 330 nM.
Consider `CCn1cc(C)cc(CC(=O)N2C[C@H](F)C[C@H]2C(=O)N[C@@H](c2ccccc2)c2ccc(C(C)C)c(F)n2)c1=O` [Compound 799, (2S,4R)-1-[2-(1-ethyl-5-methyl-2-oxo-1,2-dihydropyridin-3-yl)acetyl]-4-fluoro-N-[(S)-[6-fluoro-5-(propan-2-yl)pyridin-2-yl](phenyl)methyl] pyrrolidine-2-carboxamide], for which the IC50 in test [2] is 4 nM; in test [3] (Homo sapiens, HeLa, 24 h) it was 100 nM.
The corresponding values for `CC(C)c1ccc([C@@H](NC(=O)[C@@H]2C[C@@H](F)CN2C(=O)Cc2c[nH]c(=O)cn2)c2ccccc2)nc1F` [Compound 802, (2S,4R)-4-fluoro-N-[(S)-[6-fluoro-5-(propan-2-yl)pyridin-2-yl](phenyl)methyl]-1-[2-(5-oxo-4,5-dihydropyrazin-2-yl)acetyl]pyrrolidine-2-carboxamide] are 9 nM and 370 nM.
Taken in the same sequence, the figures for `Cc1cc(C(F)F)n(CC(=O)N2C[C@H](F)C[C@H]2C(=O)N[C@@H](c2ccccc2)c2ccc(C(C)C)c(F)n2)n1` [Compound 803, (2S,4R)-1-{2-[5-(difluoromethyl)-3-methyl-1H-pyrazol-1-yl]acetyl}-4-fluoro-N-[(S)-[6-fluoro-5-(propan-2-yl)pyridin-2-yl](phenyl)methyl] pyrrolidine-2-carboxamide] were 4 nM and 80 nM.
Taken in the same sequence, the figures for `Cc1cc(C(F)F)nn1CC(=O)N1C[C@H](F)C[C@H]1C(=O)N[C@@H](c1ccccc1)c1ccc(C(C)C)c(F)n1` [Compound 804, (2S,4R)-1-{2-[3-(difluoromethyl)-5-methyl-1H-pyrazol-1-yl]acetyl}-4-fluoro-N-[(S)-[6-fluoro-5-(propan-2-yl)pyridin-2-yl](phenyl)methyl] pyrrolidine-2-carboxamide] were 17 nM and 140 nM.
`CCN(CC)c1cnnn1CC(=O)N1C[C@H](F)C[C@H]1C(=O)N[C@@H](c1ccccc1)c1ccc(C(C)C)c(F)n1` [Compound 805, (2S,4R)-1-{2-[5-(diethylamino)-1H-1,2,3-triazol-1-yl]acetyl}-4-fluoro-N-[(S)-[6-fluoro-5-(propan-2-yl)pyridin-2-yl](phenyl)methyl] pyrrolidine-2-carboxamide]: the IC50 amounted to 12 nM in test [2] and 280 nM in test [3] (Homo sapiens, HeLa, 24 h).
With `CCn1ccnc(CC(=O)N2C[C@H](F)C[C@H]2C(=O)N[C@@H](c2ccccc2)c2ccc(C(C)C)c(F)n2)c1=O` [Compound 806, (2S,4R)-1-[2-(4-ethyl-3-oxo-3,4-dihydropyrazin-2-yl)acetyl]-4-fluoro-N-[(S)-[6-fluoro-5-(propan-2-yl)pyridin-2-yl](phenyl)methyl] pyrrolidine-2-carboxamide], the IC50 was 6 nM in test [2] and 90 nM in test [3] (Homo sapiens, HeLa, 24 h).
On to `CC(C)c1ccc([C@@H](NC(=O)[C@@H]2C[C@@H](F)CN2C(=O)Cn2nncc2N2CC(F)(F)C2)c2ccccc2)nc1F` [Compound 807, (2S,4R)-1-{2-[5-(3,3-difluoroazetidin-1-yl)-1H-1,2,3-triazol-1-yl]acetyl}-4-fluoro-N-[(S)-[6-fluoro-5-(propan-2-yl)pyridin-2-yl](phenyl)methyl] pyrrolidine-2-carboxamide], for which the IC50 amounted to 19 nM in test [2] and 450 nM in test [3] (Homo sapiens, HeLa, 24 h).
For “(2S,4R)-4-fluoro- N-[(S) or (R)-[6- fluoro-5-(propan- 2-yl)pyridin-2- yl][3-(1,2-oxazol-5- yl)phenyl]methyl]- 1-[2-(1H-1,2,3- triazol-5- yl)acetyl]pyrrolidine- 2-carboxamide [Compound 694]”, the IC50 in test [2] was 34 nM; in test [3] it was 1210 nM.
